In patent publication US7390783B2, “Charged phospholipid compositions and methods for their use” (Ottawa Heart Institute Research Corporation, priority 2000, dated 2008):

Key:
[1] = target: T1, lecithin:cholesterol acyltransferase (LCAT) (Oryctolagus cuniculus, UniProt P53761); assay: Plasma cholesterol esterification by LCAT after injection of PC or PI; format: in vivo, rabbit
T1 construct: endogenous LCAT activity is reduced to about 18% that of normal; from tissue; host or cells: plasma of PI- or PC-injected rabbits
T1 sequence (P53761 25-440): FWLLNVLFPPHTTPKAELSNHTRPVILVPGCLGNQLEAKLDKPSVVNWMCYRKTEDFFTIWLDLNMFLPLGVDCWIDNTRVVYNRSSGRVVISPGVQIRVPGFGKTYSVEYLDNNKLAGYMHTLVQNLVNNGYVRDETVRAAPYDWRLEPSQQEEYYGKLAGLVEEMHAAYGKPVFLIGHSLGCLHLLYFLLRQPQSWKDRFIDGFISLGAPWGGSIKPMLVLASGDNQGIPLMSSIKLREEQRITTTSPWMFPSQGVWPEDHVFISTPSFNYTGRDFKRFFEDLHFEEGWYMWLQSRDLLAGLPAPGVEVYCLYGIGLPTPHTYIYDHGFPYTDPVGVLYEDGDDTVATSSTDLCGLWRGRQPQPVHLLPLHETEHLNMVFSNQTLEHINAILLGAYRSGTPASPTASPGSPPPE
Method: Male New Zealand white rabbits (3.5-4.0 kg) are fasted for 12 hours prior to injection and remain fasted until after data for the final time point is taken. Rabbits have free access to water during this time. A catheter is inserted into the marginal ear vein and blood samples are collected into tubes containing 7.5% (K3) EDTA solution at the desired time points. A pre-injection blood sample is taken and the vesicle solution of either PI (n=4), or PC (n=2) or saline (n=1) is injected into the marginal ear vein. A sample of blood is removed at 10, 30 min, 1, 3, 6 and 24 h after the injection. All blood samples are placed on ice and then centrifuged at 3000 rpm for 15 min at 4° C. to separate the plasma. In order to ensure that lecithin:cholesterol acyl transferase (LCAT) is inhibited in the stored plasma, iodoacetamide (150 mM) is added to plasma samples as taught by Guerin et al. (1994). The effect of PI on LCAT activity is examined using plasma samples that are not treated with iodoacetamide. 400 μL aliquots of plasma for each time point are incubated for 30 min with 10 μCi of [^3H]-FC on filter paper discs (Dobiasova et al., 1991) at 37° C. and the reaction is terminated with the addition of 2 mL ethanol. Reaction products are extracted in hexane and the amount of [^3H] associated with CE and FC is determined by thin layer chromatography. […] However, endogenous LCAT activity is reduced to about 18% that of normal (PC injected control) after about 10 min post injection of PI. Also, PI injection reduces the fractional rate of cholesterol esterification from about 45% to about 8%, of initial values, per hour. […] To investigate the effect of PI on the production and transport of CE in the plasma, the amount of radioactive CE was measured at each time point (data not shown). […] Rather it appears that PI may modify intravascular cholesterol levels by mobilizing a cellular cholesterol pool.

[2] = system: faecal cholesterol output; assay: Faecal cholesterol excretion after PI or PC injection; format: in vivo, rabbit
Method: Rabbits are injected with 40 μmol PI or PC vesicles containing 400 μCi […]. Animals are sacrificed at 30 min, and bile is aspirated from the gall bladder. In addition the livers are harvested, homogenized and tissue radioactivity determined. Sterol excretion in the faeces is measured similarly except that faecal cholesterol levels are measured over a time period of 96 hours. Referring now to FIG. 7, there is graphically depicted the effect of PI injection associated with sterol excretion. […] PC injection into a rabbit had no effect on cholesterol excretion, while PI injection enhanced faecal cholesterol output by about 300% at 2 days post injection. The increase in cholesterol output returned to normal by about day 4.

lipoprotein lipase = target: T2, lipoprotein lipase (Homo sapiens, UniProt P06858); assay: Lipid hydrolysis by lipoprotein lipase in plasma enriched with charged lipid; format: biochemical; settings: not shown
T2 sequence (P06858 28-475): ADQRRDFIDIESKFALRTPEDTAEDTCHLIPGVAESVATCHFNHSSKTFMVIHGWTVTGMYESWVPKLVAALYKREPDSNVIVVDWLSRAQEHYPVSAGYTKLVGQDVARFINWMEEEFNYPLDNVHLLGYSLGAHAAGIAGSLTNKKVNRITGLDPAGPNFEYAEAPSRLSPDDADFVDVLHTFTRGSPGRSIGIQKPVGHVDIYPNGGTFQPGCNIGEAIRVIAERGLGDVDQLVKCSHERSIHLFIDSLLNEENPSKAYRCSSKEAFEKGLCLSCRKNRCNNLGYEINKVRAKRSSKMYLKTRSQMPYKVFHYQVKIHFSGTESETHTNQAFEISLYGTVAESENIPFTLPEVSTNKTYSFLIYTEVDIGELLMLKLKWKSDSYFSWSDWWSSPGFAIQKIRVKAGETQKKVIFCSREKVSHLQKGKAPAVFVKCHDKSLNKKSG
Excerpt: Referring now to FIG. 10, there is shown the effect of lipoprotein charge on hepatic lipase. High density lipoprotein particles were enriched to contain various amounts of anionic or cationic lipids and then characterized as substrates for pure human hepatic lipase. Decreasing the net negative charge on the lipoprotein was associated with a reduction in the lipolytic activity of is hepatic lipase. Lipoprotein charge can also be used to regulate lipoprotein lipase. […] Lipid hydrolysis by hepatic or lipoprotein lipase can therefore be affected by alterations in the charge properties of plasma lipoproteins.

Human plasma = assay: Plasma clotting time (prothrombin time); format: biochemical; settings: human plasma incubated with increasing amounts of vesicles, 24 h at 4° C.
Method: Referring now to FIG. 11, there is shown the effect of charged lipid on blood coagulation. Human plasma was incubated with various amounts of uncharged vesicles, phosphatidylcholine (PC) or anionic vesicles, phosphatidylinositol (PI), for 24 h at 4° C. Prothrombin time was then measured with the use of a commercially available kit.

[3] = PI mass measurements in HDL after injection of PI vesicles; format: in vivo, rabbit
Excerpt: The clearance of PI from the different lipoproteins may have been due to either a lipoprotein-cellular transfer or to a selective hydrolysis by a charged phospholipid specific phospholipase.

CCCCCCCC/C=C\CCCCCCCC(=O)O[C@H](COC(=O)CCCCCCCCCCCCCCC)COP(=O)(O)O[C@@H]1[C@H](O)[C@H](O)[C@@H](O)[C@H](O)[C@H]1O [PI, 1-palmitoyl-2-oleoyl phosphatidylinositol]
endogenous LCAT activity, of normal (PC injected control) ([1]; about 10 min post injection): about 18%
LCAT activity returned to, of normal ([1]; after a period of time following vesicle injection): about 75%
effect on LCAT activity / cholesteryl esterification ([1]; after injection of vesicles): almost completely inhibits
less [3H]-CE in plasma than in the control ([1]; initial time points, vs PC injected rabbit): 85%
fractional rate of cholesterol esterification ([1]; of initial values, per hour, reduced from about 45%): about 8%
faecal cholesterol output enhanced by ([2]; 2 days post injection): about 300%
increase in cholesterol output returned to normal by ([2]; rabbit, in vivo): ~4 days
effect on lipid hydrolysis by lipoprotein lipase (lipoprotein lipase): stimulate lipid hydrolysis
effect on plasma clotting time (prothrombin time) (Human plasma): caused an inhibition to the formation of prothrombin
level of PI in HDL, of the total HDL-PL ([3]; after 10 min, initially below detection levels): up to 30%
HDL-PI content, of the HDL-PL ([3]; by 3 h): 5-10%
